Test results: patent US4943629A, “Antidiabetic alpha-substituted phosphonates” (American Cyanamid Company, priority 1988, dated 1990)

Key:
[1] = biological target: T1, purified rat liver FBP (fructose-1,6-bisphosphatase) (Rattus norvegicus, UniProt P19112); experiment: inhibition of fructose-1,6-bisphosphatase (FBP), spectrophotometric assay; assay type: biochemical; conditions: pH 7.4, 30° C., 0.02 mM fructose-1,6-bis-phosphate
T1 construct: purified rat liver FBP; from tissue; host or cells: rat liver
T1 sequence (P19112 2-363 limits assumed): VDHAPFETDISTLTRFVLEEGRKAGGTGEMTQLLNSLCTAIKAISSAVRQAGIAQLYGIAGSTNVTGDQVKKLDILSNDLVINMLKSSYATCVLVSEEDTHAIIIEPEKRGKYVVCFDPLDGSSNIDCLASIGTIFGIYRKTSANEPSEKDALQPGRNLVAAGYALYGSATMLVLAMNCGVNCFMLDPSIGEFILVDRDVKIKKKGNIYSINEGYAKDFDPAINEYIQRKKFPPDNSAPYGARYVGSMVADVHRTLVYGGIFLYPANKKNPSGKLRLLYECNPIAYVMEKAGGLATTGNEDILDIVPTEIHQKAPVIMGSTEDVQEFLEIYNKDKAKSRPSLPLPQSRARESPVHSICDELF
Method: (§1) The novel compounds of this invention were tested for their ability to stimulate the enzyme 6-phosphofructo-1-kinase ("PFK") and for their ability to inhibit the enzyme fructose-1,6-bisphosphatase ("FBP") using the procedures described below.
Effects on the activity of FBP were determined using a spectrophotometric assay. The assay mixture contained: 100 mM tris(hydroxymethyl)aminomethane, hydrochloride ("TRIS-HCl", pH 7.4); 2.5 mM beta-mercaptoethanol; 2 mM magnesium chloride; 0.05 mM EDTA; 0.2 mM nicotinamide adenine dinucleotide phosphate ("NADP"); 10 U phosphoglucose isomerase; 5 U glucose-6-phosphate dehydrogenase; 0.02U of purified rat liver FBP; and various concentrations of the test compound, all in a final volume of 1 ml. The mixture was preincubated for 3 minutes at 30° C. and then the reaction was initiated with 0.02 mM fructose-1,6-bis-phosphate. The rate of increase in absorbance at 340 nm was measured at 30° C. with a recording spectrophotometer

[2] = biological target: T2, purified rat liver 6-phosphofructo-1-kinase (Rattus norvegicus, UniProt P30835); experiment: stimulation of 6-phosphofructo-1-kinase (PFK), aldolase-coupled spectrophotometric assay; assay type: biochemical; conditions: pH 7.3, 30° C., 1 mM ATP, 0.2 mM fructose-6-phosphate, read-out: PFK ED50
T2 construct: purified rat liver 6-phosphofructo-1-kinase; from tissue; host or cells: rat liver
T2 sequence (P30835 2-780 limits assumed): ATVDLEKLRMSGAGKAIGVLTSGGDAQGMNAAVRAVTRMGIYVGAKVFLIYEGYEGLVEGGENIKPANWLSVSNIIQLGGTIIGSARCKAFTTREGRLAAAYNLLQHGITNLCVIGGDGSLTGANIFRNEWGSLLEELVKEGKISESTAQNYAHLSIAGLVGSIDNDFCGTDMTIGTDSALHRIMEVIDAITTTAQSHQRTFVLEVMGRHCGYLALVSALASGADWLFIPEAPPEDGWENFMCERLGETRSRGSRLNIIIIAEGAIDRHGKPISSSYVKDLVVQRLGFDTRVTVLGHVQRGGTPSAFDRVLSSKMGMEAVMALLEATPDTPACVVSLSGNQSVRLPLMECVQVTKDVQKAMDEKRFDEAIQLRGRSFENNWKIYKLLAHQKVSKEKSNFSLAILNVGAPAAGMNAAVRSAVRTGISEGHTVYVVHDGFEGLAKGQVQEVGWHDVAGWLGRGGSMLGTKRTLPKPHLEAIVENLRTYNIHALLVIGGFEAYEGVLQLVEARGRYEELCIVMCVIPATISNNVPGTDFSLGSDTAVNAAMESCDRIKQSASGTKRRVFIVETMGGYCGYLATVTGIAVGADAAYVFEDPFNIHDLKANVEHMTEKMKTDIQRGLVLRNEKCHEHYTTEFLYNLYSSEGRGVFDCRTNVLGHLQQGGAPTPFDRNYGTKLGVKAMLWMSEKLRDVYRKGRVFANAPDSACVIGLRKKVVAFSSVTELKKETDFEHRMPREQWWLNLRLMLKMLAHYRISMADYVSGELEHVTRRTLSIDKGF
Method: as §1
Effects on the activity of PFK were determined using an aldolase-coupled, spectrophotometric assay. The assay mixture contained: 50 mM N-tris(hydroxymethyl) methyl-2-aminoethanesulfonic acid, hydrochloride ("TES-HCl", pH 7.3); 1 mM ethylenediaminetetraacetic acid ("EDTA"); 6 mM magnesium chloride; 2.5 mM dithiothreitol; 0.165 mM nicotinamide adenine dinucleotide ("NADH"); 1 mM adenosine triphosphate ("ATP"); 0.04U aldolase; 0.4U triose phosphate isomerase; 1.5U alpha-glycerolphosphate dehydrogenase; 0.lU of purified rat liver 6-phosphofructo-1-kinase; and various concentrations of the test compound, all in a final volume of 1 ml. The mixture was preincubated for 3 minutes at 30° C. and then the reaction was initiated with 0.2 mM fructose-6-phosphate. The rate of decrease in absorbance at 340 nm was measured at 30° C. with a recording spectrophotometer.

SMILES	IC50 [1] [µM]	EC50 [2] [µM]
O=P(O)(O)OC[C@H]1O[C@H](C(O)P(=O)(O)O)[C@@H](O)[C@@H]1O (stereo partly drawn) [[1R(and/or 1S)]-2,5-Anhydro-1-C-phosphono-D-mannitol, 6-(dihydrogen phosphate)]	44	13
O=P(O)(O)OC[C@H]1O[C@](CO)(C(F)P(=O)(O)O)[C@@H](O)[C@@H]1O (stereo partly drawn) [2,5-Anhydro-2-C-(fluorophosphonomethyl)-D-glucitol, 6-(dihydrogen phosphate)]	378	1.3
O=P(O)(O)OC[C@H]1O[C@](CO)(C(O)P(=O)(O)O)[C@@H](O)[C@@H]1O (stereo partly drawn) [2,5-Anhydro-2-C-(hydroxyphosphonomethyl)-D-glucitol, 6-(dihydrogen phosphate)]	393	20
O=P(O)(O)OC[C@H]1O[C@H](CC(F)P(=O)(O)O)[C@@H](O)[C@@H]1O (stereo partly drawn) [[1R(and 1S)]-3,6-Anhydro-1,2-dideoxy-1-fluoro-1-phosphono-D-manno-heptitol, 7-(dihydrogen phosphate)]	61	1.3
O=P(O)(O)OC[C@H]1OC(C(F)P(=O)(O)O)[C@@H](O)[C@@H]1O (mixture of isomers) [2,5-Anhydro-1-deoxy-1-fluoro-1-phosphono-D-glucitol and D-mannitol, 6-(dihydrogen phosphate) mixture (70:30)]	54	10
O=P(O)(O)OC[C@H]1O[C@H](CC(F)(F)P(=O)(O)O)[C@@H](O)[C@@H]1O [3,6-Anhydro-1,2-dideoxy-1,1-difluoro-1-phosphono-D-manno-heptitol, 7-(dihydrogen phosphate)]	27	3
O=P(O)(O)OC[C@H]1O[C@H](C(F)P(=O)(O)O)[C@@H](O)[C@@H]1O (stereo partly drawn) [2,5-Anhydro-1-deoxy-1-fluoro-1-phosphono-D-mannitol, 6-(dihydrogen phosphate)]	114	22
O=P(O)(O)OC[C@H]1O[C@H](CC(O)P(=O)(O)O)[C@@H](O)[C@@H]1O (stereo partly drawn) [[1R(and/or 1S)]-3,6-Anhydro-2-deoxy-1-phosphono-D-manno-heptitol, 7-(dihydrogen phosphate)]	62	1
O=P(O)(O)OC[C@H]1O[C@H](C(F)(F)P(=O)(O)O)[C@@H](O)[C@@H]1O [2,5-Anhydro-1-deoxy-1,1-difluoro-1-phosphono-D-mannitol, 6-(dihydrogen phosphate)]	226	14
O=P(O)(O)OC[C@H]1O[C@@](CO)(C(F)P(=O)(O)O)[C@@H](O)[C@@H]1O (single isomer, unassigned) [2,5-Anhydro-1-deoxy-1-fluoro-2-(hydroxymethyl)-1-phosphono-D-glucitol, 6-(dihydrogen phosphate)]	110	0.7
